Results taken from ChEMBL document CHEMBL4706630, “Modulation of the G-Protein-Coupled Receptor 84 (GPR84) by Agonists and Antagonists” (J Med Chem, 2020).
Blank lines part the entries; values can stand above or below the compound they belong to.

Key:
[1] = molecular target: T1, G-protein coupled receptor 84 (Homo sapiens, UniProt Q9NQS5); test: (§1) Antagonist activity at human Flag-tagged Gialpha-coupled GPR84 expressed in human Flp-In-T-REx-293 cell membrane assessed as reduction in PSB-16671-induced stimulation of [35S]GTPgammaS binding preincubated for 15 mins followed by PSB-16671 addition and subsequent addition of [35S]GTPgammaS measured after 60 mins by liquid scintillation spectroscopy; assay type: functional, cell membranes
T1 sequence (Q9NQS5 whole entry, the tested form may be a part): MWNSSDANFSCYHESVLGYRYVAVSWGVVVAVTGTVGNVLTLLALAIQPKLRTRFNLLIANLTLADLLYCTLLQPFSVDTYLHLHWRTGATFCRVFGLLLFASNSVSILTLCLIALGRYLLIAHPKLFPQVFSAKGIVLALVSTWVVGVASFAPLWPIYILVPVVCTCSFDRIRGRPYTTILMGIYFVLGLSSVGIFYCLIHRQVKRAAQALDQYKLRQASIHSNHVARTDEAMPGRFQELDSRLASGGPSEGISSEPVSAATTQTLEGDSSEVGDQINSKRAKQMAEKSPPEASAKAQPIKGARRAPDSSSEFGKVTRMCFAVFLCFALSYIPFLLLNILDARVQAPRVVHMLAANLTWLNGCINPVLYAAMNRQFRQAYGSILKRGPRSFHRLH

[2] = molecular target: T1, G-protein coupled receptor 84; test: (§2) Antagonist activity at recombinant human N-terminal epitope tagged/eYFP-fused FLAG-tagged GPR84 expressed in Flp-In TREx 293 cells assessed as inhibition of embelin-induced [35S]GTPgammaS binding pre-incubated for 15 mins followed by [35S]GTPgammaS addition and measured after 45 mins by liquid scintillation spectrometry; assay type: functional, cell-based, Flp-In-T-REx-293
[3] = molecular target: T2, G-protein coupled receptor 84 (Mus musculus, UniProt Q8CIM5); test: as §1, with “at” for “at human Flag-tagged Gialpha-coupled”, “GPR84” for “GPR84 expressed”, “LPS-treated mouse RAW 264.7” for “human Flp-In-T-REx-293”; assay type: functional, cell membranes, RAW264.7
T2 sequence (Q8CIM5 whole entry): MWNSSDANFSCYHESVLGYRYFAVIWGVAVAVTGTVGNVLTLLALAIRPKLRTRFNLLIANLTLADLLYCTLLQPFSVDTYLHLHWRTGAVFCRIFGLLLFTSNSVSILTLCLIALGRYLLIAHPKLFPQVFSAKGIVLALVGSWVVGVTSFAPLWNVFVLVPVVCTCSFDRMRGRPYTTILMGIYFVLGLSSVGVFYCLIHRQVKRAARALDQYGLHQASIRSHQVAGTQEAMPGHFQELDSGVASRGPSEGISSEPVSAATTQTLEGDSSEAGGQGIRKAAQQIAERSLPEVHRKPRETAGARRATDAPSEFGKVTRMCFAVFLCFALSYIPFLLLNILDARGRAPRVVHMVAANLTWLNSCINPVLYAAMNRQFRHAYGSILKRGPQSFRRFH

[4] = molecular target: T2, G-protein coupled receptor 84; test: as §1, with “mouse Galphai2-coupled” for “human Flag-tagged Gialpha-coupled”; assay type: functional, cell membranes
[5] = molecular target: T1, G-protein coupled receptor 84; test: Antagonist activity at GPR84 in LPS-treated human THP-1 cell membrane assessed as reduction in PSB-16671-induced stimulation of [35S]GTPgammaS binding preincubated for 15 mins followed by PSB-16671 addition and subsequent addition of [35S]GTPgammaS measured after 60 mins by liquid scintillation spectroscopy; assay type: functional
[6] = molecular target: T1, G-protein coupled receptor 84; test: Antagonist activity at GPR84 in LPS-treated human THP-1 cell membrane assessed as reduction in ZQ-16-induced stimulation of [35S]GTPgammaS binding preincubated for 15 mins followed by ZQ-16 addition and subsequent addition of [35S]GTPgammaS measured after 60 mins by liquid scintillation spectroscopy; assay type: functional
[7] = molecular target: T1, G-protein coupled receptor 84; test: as §2, with “DIM-induced” for “embelin-induced”; assay type: functional, cell-based, Flp-In-T-REx-293
[8] = molecular target: T1, G-protein coupled receptor 84; test: as §2, with “decanoic acid-induced” for “embelin-induced”; assay type: functional, cell-based, Flp-In-T-REx-293
[9] = molecular target: T1, G-protein coupled receptor 84; test: Antagonist activity at human GPR84 expressed in CHO-K1 cells assessed as reduction in 6-OAU-induced inhibition of forskolin stimulated cAMP production preincubated for 15 mins followed by forskolin and 6-OAU stimulation and measured after 30 mins by luminescence method; assay type: functional, cell-based
[10] = molecular target: T2, G-protein coupled receptor 84; test: Agonist activity at GPR84 in mouse bone-marrow-derived neutrophils assessed as stimulation of [35S]GTPgammaS binding incubated for 60 mins by liquid scintillation spectroscopy; assay type: functional, tissue-based, Neutrophil
[11] = molecular target: T1, G-protein coupled receptor 84; test: Agonist activity at human Gialpha-coupled GPR84 expressed in baculovirus infected sf9 insect cells assessed as induction of [35S]GTPgammaS incubated for 1 hr by liquid scintillation counting method; assay type: functional
[12] = molecular target: T1, G-protein coupled receptor 84; test: Agonist activity at human GPR84 expressed in CHO cells assessed as reduction in forskolin-stimulated cAMP production preincubated for 20 mins followed by forskolin stimulation and measured after 20 mins by cAMP assay; assay type: functional, cell-based
[13] = molecular target: T1, G-protein coupled receptor 84; test: Agonist activity at human GPR84 expressed in CHO cell membranes assessed as induction of [35S]GTPgammaS incorporation incubated for 1 hr by liquid scintillation counting method; assay type: functional, Cell membrane

SMILES: O=c1nc(OCC2COCCO2)cc2n1CCc1cc(C#CCNc3ccccc3)ccc1-2 (stereo not given)
- IC50 [1]: 0.9 nM
- IC50 [2]: 22 nM
- IC50 [3]: 145 nM
- IC50 [4]: 68 nM
- IC50 [5]: 4.8 nM
- IC50 [6]: 14 nM
- IC50 [7]: 21 nM
- IC50 [8]: 25 nM

SMILES: O=c1nc(OC[C@@H]2COCCO2)cc2n1CCc1cc(COCC3CCOCC3)ccc1-2
- IC50 [2]: 83 nM
- IC50 [7]: 55 nM
- IC50 [8]: 168 nM

SMILES: CCCCCCSc1nc(O)cc(O)n1
- EC50 [10]: 12.9 nM

SMILES: Fc1cc(F)c2[nH]cc(Cc3c[nH]c4c(F)cc(F)cc34)c2c1
- EC50 [10]: 2880 nM

SMILES: CCCCCCCCCC(O)CC(=O)O (stereo not given)
- EC50 [11]: 13000 nM

SMILES: CCCCCCCCC(=O)O [NONANOATE]
- EC50 [12]: 52300 nM
- EC50 [13]: 70200 nM

Continued, values first:

- IC50 [2]: 14 nM
- IC50 [7]: 86 nM
- IC50 [8]: 28 nM
SMILES: O=c1nc(OC[C@H]2COCCO2)cc2n1CCc1cc(OCc3noc(C4CC4)n3)ccc1-2

- IC50 [9]: 260 nM
SMILES: O=c1nc(OCC2COCCO2)cc2n1CCc1cc(OCc3ccccn3)ccc1-2 (stereo not given)
